Values joined by “and” are separate entries in the source; they are usually repeats but may differ in a detail not shown here. Equal values may be shown once. Toxic doses and inconclusive results are not listed. Peptide text beside a SMILES is read from it. * marks the point of attachment. Cbz = O=C(OCc1ccccc1)*
System: P388 leukemia ip, CD2F1 mice, survival T/C
Assay: NCI In Vivo Anticancer Drug Screen. Data for tumor model P388 Leukemia (intraperitoneal) in CD2F1 (CDF1) mice
Settings: endpoint: median survival time, higher = longer survival
Procedure, shortened: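 Mice carrying the transplanted tumor received test compound or vehicle. Survival was recorded in each group, and the value is the treated-group measurement divided by that of the vehicle-treated control group.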

[1] = dose: 50.0 mg/kg/injection, schedule: Q01DX005 (ip), vehicle: Klucel (hydroxypropylcellulose) (HPC)
[2] = dose: 100.0 mg/kg/injection, schedule: Q01DX005 (ip), vehicle: Klucel (hydroxypropylcellulose) (HPC)
[3] = dose: 200.0 mg/kg/injection, schedule: Q01DX005 (ip), vehicle: Klucel (hydroxypropylcellulose) (HPC)
[4] = dose: 50.0 mg/kg/injection, schedule: Q01DX009 (ip), vehicle: saline with Tween-80
[5] = dose: 100.0 mg/kg/injection, schedule: Q01DX009 (ip), vehicle: saline with Tween-80
[6] = dose: 200.0 mg/kg/injection, schedule: Q01DX009 (ip), vehicle: saline with Tween-80
[7] = dose: 50.0 mg/kg/injection, schedule: Q01DX005 (ip), vehicle: saline with Tween-80
[8] = dose: 100.0 mg/kg/injection, schedule: Q01DX005 (ip), vehicle: saline with Tween-80
[9] = dose: 200.0 mg/kg/injection, schedule: Q01DX005 (ip), vehicle: saline with Tween-80
[10] = dose: 50.0 mg/kg/injection, schedule: Q01DX009 (ip), vehicle: saline
[11] = dose: 100.0 mg/kg/injection, schedule: Q01DX009 (ip), vehicle: saline
[12] = dose: 50.0 mg/kg/injection, schedule: Q01DX005 (ip), vehicle: saline
[13] = dose: 100.0 mg/kg/injection, schedule: Q01DX005 (ip), vehicle: saline
[14] = dose: 200.0 mg/kg/injection, schedule: Q01DX005 (ip), vehicle: saline

## COC(=O)C1OC(SCCN)C(O)C(O)C1O (stereo unspecified)
dose: 50.0 mg/kg/injection, schedule: Q01DX009 (ip), vehicle: water
  T/C: 100 % of control
dose: 100.0 mg/kg/injection, schedule: Q01DX009 (ip), vehicle: water
  T/C: 102 % of control
dose: 200.0 mg/kg/injection, schedule: Q01DX009 (ip), vehicle: water
  T/C: 91 % of control

## Nc1cc2nc(=O)cc3n2c(n1)SC3
[1]
  T/C: 99 % of control
[2]
  T/C: 100 % of control
[3]
  T/C: 100 % of control

## Nc1nc(N)c2cc(S(=O)(=O)c3ccc(Cl)cc3)ccc2n1
[4]
  T/C: 100 % of control
[5]
  T/C: 98 % of control
[6]
  T/C: 97 % of control

## O=c1c2c([nH]c3c1ccc1[nH]c4c(c(=O)c13)CCCC4)CCCC2
[4]
  T/C: 90 % of control
[5]
  T/C: 91 % of control
[6]
  T/C: 97 % of control

## CCOC(=O)/C(Nc1ccc(C(=O)OCC)cc1)=C1\COc2nc(N)[nH]c(=O)c2N1
[7]
  T/C: 93 % of control
[8]
  T/C: 91 % of control
[9]
  T/C: 107 % of control

## COc1cc(OC)c(NC(=O)Oc2cc(C)c(I)cc2C)cc1Cl
dose: 6.25 mg/kg/injection, schedule: Q01DX009 (ip), vehicle: saline
  T/C: 118 % of control
dose: 12.5 mg/kg/injection, schedule: Q01DX009 (ip), vehicle: saline
  T/C: 96 % of control
dose: 25.0 mg/kg/injection, schedule: Q01DX009 (ip), vehicle: saline
  T/C: 93 % of control
dose: 100.0 mg/kg/injection, schedule: Q01DX009 (ip), vehicle: saline + alcohol
  T/C: 98 % of control
dose: 200.0 mg/kg/injection, schedule: Q01DX009 (ip), vehicle: saline + alcohol
  T/C: 95 % of control

## COCN(CCc1ccccc1)CCN(C)C
[10]
  T/C: 113 % of control
[11]
  T/C: 109 % of control

## BrC1C(c2ccccc2)=NOC12CN=C(c1ccccc1)O2 (stereo unspecified)
dose: 100.0 mg/kg/injection, schedule: Q01DX001 (ip), vehicle: Klucel (hydroxypropylcellulose) (HPC)
  T/C: 101 % of control
dose: 200.0 mg/kg/injection, schedule: Q01DX001 (ip), vehicle: Klucel (hydroxypropylcellulose) (HPC)
  T/C: 99 % of control
dose: 400.0 mg/kg/injection, schedule: Q01DX001 (ip), vehicle: Klucel (hydroxypropylcellulose) (HPC)
  T/C: 96 % of control

## CCOC(=O)C(=C\c1nncn1-c1ccccc1)/C=C(/O)c1ccccc1
dose: 15.0 mg/kg/injection, schedule: Q01DX005 (ip), vehicle: Klucel (hydroxypropylcellulose) (HPC)
  T/C: 97 % of control
dose: 30.0 mg/kg/injection, schedule: Q01DX005 (ip), vehicle: Klucel (hydroxypropylcellulose) (HPC)
  T/C: 93 % of control
dose: 60.0 mg/kg/injection, schedule: Q01DX005 (ip), vehicle: Klucel (hydroxypropylcellulose) (HPC)
  T/C: 87 % of control

## O=c1[nH][nH]c(=S)n1-c1ccccc1
[4]
  T/C: 98 % of control
[5]
  T/C: 101 % of control
[6]
  T/C: 94 % of control
dose: 400.0 mg/kg/injection, schedule: Q01DX009 (ip), vehicle: saline with Tween-80
  T/C: 88 % of control

## CCN(CC)CCCN1CC(=O)N2CCCCN2C(=O)C1
[12]
  T/C: 102 % of control
[13]
  T/C: 100 % of control
[14]
  T/C: 100 % of control

## Cn1c(N)c(N=O)c(=O)n(C)c1=O
dose: 90.0 mg/kg/injection, schedule: Q01DX009 (ip), vehicle: saline with Tween-80
  T/C: 90 % of control
dose: 180.0 mg/kg/injection, schedule: Q01DX009 (ip), vehicle: saline with Tween-80
  T/C: 95 % of control
dose: 360.0 mg/kg/injection, schedule: Q01DX009 (ip), vehicle: saline with Tween-80
  T/C: 95 % of control

## CC(C)(C)c1cc(C(=O)[O-])c([OH2+])c(C(C)(C)C)c1.CC(C)(C)c1cc(C(=O)[O-])c([OH2+])c(C(C)(C)C)c1.[Mn+2]
dose: 60.0 mg/kg/injection, schedule: Q01DX005 (ip), vehicle: saline with Tween-80
  T/C: 106 % of control and 111 % of control
dose: 120.0 mg/kg/injection, schedule: Q01DX005 (ip), vehicle: saline with Tween-80
  T/C: 105 % of control and 121 % of control

## COC(=O)C(CC(C)C)NC(=O)C(CO)NC(=O)OCc1ccccc1 (stereo not drawn) (Cbz-Ser-Leu-OMe; configuration not given here)
[7]
  T/C: 100 % of control
[8]
  T/C: 99 % of control
[9]
  T/C: 100 % of control

## COc1cc(NS(C)(=O)=O)ccc1Nc1c2ccccc2nc2c(C)cccc12
dose: 1.25 mg/kg/injection, schedule: Q01DX009 (ip), vehicle: saline with Tween-80
  T/C: 155 % of control
dose: 2.5 mg/kg/injection, schedule: Q01DX009 (ip), vehicle: saline with Tween-80
  T/C: 165 % of control
dose: 5.0 mg/kg/injection, schedule: Q01DX009 (ip), vehicle: saline with Tween-80
  T/C: 87 % of control
dose: 6.25 mg/kg/injection, schedule: Q01DX009 (ip), vehicle: Klucel (hydroxypropylcellulose) (HPC)
  T/C: 97 % of control

## Fc1ccc(OCCC(Cn2ccnc2)c2ccc(Cl)cc2Cl)cc1 (stereo unspecified)
dose: 12.5 mg/kg/injection, schedule: Q01DX009 (ip), vehicle: saline with Tween-80
  T/C: 106 % of control
dose: 25.0 mg/kg/injection, schedule: Q01DX009 (ip), vehicle: saline with Tween-80
  T/C: 106 % of control
[4]
  T/C: 88 % of control and 94 % of control

## CN(CCO)c1ncnc2c1cnn2C
[12]
  T/C: 100 % of control
[13]
  T/C: 101 % of control
[14]
  T/C: 100 % of control

## COC(=O)/C(CC(=O)O)=C(\c1ccc2c(c1)OCO2)c1cc(OC)c(OC)c(OC)c1
dose: 100.0 mg/kg/injection, schedule: Q04DX002 (ip), vehicle: Klucel (hydroxypropylcellulose) (HPC)
  T/C: 100 % of control
dose: 200.0 mg/kg/injection, schedule: Q04DX002 (ip), vehicle: Klucel (hydroxypropylcellulose) (HPC)
  T/C: 103 % of control
dose: 400.0 mg/kg/injection, schedule: Q04DX002 (ip), vehicle: Klucel (hydroxypropylcellulose) (HPC)
  T/C: 100 % of control

## O=C(N/N=C/c1cc(Cl)cc(Cl)c1[O-])c1ccccc1.O=C(N/N=C/c1cc(Cl)cc(Cl)c1[O-])c1ccccc1.[Ni+2]
dose: 100.0 mg/kg/injection, schedule: Q01DX001 (ip), vehicle: saline with Tween-80
  T/C: 93 % of control
dose: 200.0 mg/kg/injection, schedule: Q01DX001 (ip), vehicle: saline with Tween-80
  T/C: 92 % of control
dose: 400.0 mg/kg/injection, schedule: Q01DX001 (ip), vehicle: saline with Tween-80
  T/C: 107 % of control

## CCOC(=O)c1ccc(NC(=O)CSc2nc3ccccc3o2)cc1
[10]
  T/C: 114 % of control
[11]
  T/C: 93 % of control

## CSCC(NP1(=O)SC(NN=C(C)C)=NC1(C)C)C(=O)O (stereo unspecified)
dose: 60.0 mg/kg/injection, schedule: Q01DX005 (ip), vehicle: saline
  T/C: 106 % of control
dose: 120.0 mg/kg/injection, schedule: Q01DX005 (ip), vehicle: saline
  T/C: 107 % of control

## CCCCC(CC)CN=Cc1c(O)c(O)c(C(C)C)c2cc(C)c(-c3c(C)cc4c(C(C)C)c(O)c(O)c(C=NCC(CC)CCCC)c4c3O)c(O)c12 (stereo unspecified)
[7]
  T/C: 93 % of control
[8]
  T/C: 88 % of control
[9]
  T/C: 86 % of control

## C[CH2][Sn]1([Cl])[O]CCNCC[O]1
dose: 25.0 mg/kg/injection, schedule: Q01DX005 (ip), vehicle: Klucel (hydroxypropylcellulose) (HPC)
  T/C: 103 % of control
[1]
  T/C: 103 % of control and 113 % of control
[2]
  T/C: 116 % of control
[3]
  T/C: 122 % of control

## CCOc1c(N=Nc2ccccc2Cl)c(-c2ccccc2)nn1C(=S)S
[7]
  T/C: 105 % of control
[8]
  T/C: 99 % of control

## CCCCN(CCCC)CC(O)c1cc2ccccc2c2cc(Br)ccc12 (stereo unspecified)
[7]
  T/C: 100 % of control
[8]
  T/C: 102 % of control
[9]
  T/C: 100 % of control

## O=c1oc2ccccc2n1Cc1ccc(Cl)cc1
dose: 6.25 mg/kg/injection, schedule: Q01DX005 (ip), vehicle: saline with Tween-80
  T/C: 102 % of control
dose: 12.5 mg/kg/injection, schedule: Q01DX005 (ip), vehicle: saline with Tween-80
  T/C: 93 % of control
dose: 25.0 mg/kg/injection, schedule: Q01DX005 (ip), vehicle: saline with Tween-80
  T/C: 99 % of control

## N#CC1=C(O)/C(=C\c2ccc(Cl)c(Cl)c2)N=C1N
[7]
  T/C: 89 % of control
[8]
  T/C: 90 % of control
[9]
  T/C: 97 % of control

From PubChem BioAssay AID330 (DTP/NCI, 2004)
